These results are taken from PMC4434572, “Identification of novel drugs to target dormant micrometastases” (BMC Cancer, 2015).

Holding throughout (type): cell-based
The subject of test [1] is MDA-MB-435 cells. Put plainly: Proliferation (CFDA-AM esterase assay) of cells grown on SISgel, plastic or Matrigel, 48 h drug exposure. To be noted: MDA-MB-435 grown on Matrigel (fully malignant phenotype).
The next test deals with AGS (gastric). The test is described as follows: Proliferation EC50 on Matrigel vs SISgel.
The subject of the next test is J82 (bladder). The test is described as follows: Proliferation EC50 on SISgel vs monolayer. To be noted: n = 6-8. The source says:
(§1) The libraries were obtained from the NCI (Diversity Library I) comprised of 2,918 compounds and a 10,000 compound diversity library from ChemBridge, Inc. (DiverSet-EXP). The NCI library is no longer available in the form used here, but how it was constructed is described (http://dtp.nci.nih.gov/branches/dscb/diversity_explanation.html). The ChemBridge library is a subset (Set Code NM1024) of the full 50,000 compound library (http://www.chembridge.com/screening_libraries/diversity_libraries/). Compounds were diluted to 100 μM before use. SISgel was prepared as described previously from powdered porcine small intestine submucosa obtained from Cook Biotech (W. Lafayette, IN). It is a natural product that is used extensively in tissue engineering as a bioscaffold. J82 bladder cancer cells and other cell lines were obtained from the ATCC (Bethesda, MD). The basic principle is that cells grown on any ECM are, in general, expected to show higher resistance to anticancer compounds than when grown on plastic. Therefore, compounds that show a higher activity toward cancer cells on a normal ECM than on a plastic surface would be candidates to target suppressed, micrometastatic cells. Efficacy in vitro was assessed by plating 30,000 cells in 50 μL of high glucose DMEM with penicillin-streptomycin and 10 % fetal calf serum on SISgel in a 96-well plate containing 50 μL of gelled SISgel per well. Cells were allowed to attach and assume the SISgel phenotype for 48 h. A matching plate without SISgel was prepared 24 h later by pipetting 3,000 cells in 100 μL of high glucose DMEM with penicillin-streptomycin and 10 % fetal calf serum into each well of 96 well plate. The cells were allowed to attach and grow for 24 h. These numbers of cells gave approximately equal replication rates at the time drug was added for cells grown on the plastic surface or SISgel as determined by the fraction of S-phase cells identified by flow cytometry. The cells were exposed to drug in fresh medium for 48 h, at which time the cell number was determined using the CFDA-AM cellular esterase proliferation assay (cat. #C1354, Life Technologies). For screening the results are reported as the ratio of cell count of cells on the plastic surface to the cell count on SISgel. An initial difference of 1.5 fold identified potential hits. All potential hits were confirmed in triplicate. Those compounds that replicated were confirmed by a full dose–response study yielding an EC50 using five wells per drug concentration. Data were analyzed using nonlinear regression to a sigmoid curve with Prism 4 (GraphPad Software, Inc., LaJolla, CA). Potential hits that were confirmed by dose–response using J82 were also tested with MDA-MB-435 breast cancer, PC-3 metastatic prostate cancer, Capan1 pancreatic cancer and the J82 bladder cancer cell lines.

The subject of another test is Capan-1 (pancreatic). Put plainly: Proliferation EC50 on SISgel vs monolayer. To be noted: n = 6-8.
Description: as §1

The test system of test [2] is MDA-MB-435 cells. The test is described as follows: Western blot of protein levels after treatment. On the procedure: Protein content of selected proteins identified by reversed phase protein array (see supplementary materials) as being involved mechanistically in the response to DT320 was assayed by Western blot as described using the following antibodies. The following antibodies were purchased from Cell Signaling Technology (Beverly, MA) and diluted per manufacturer’s directions: Rabbit mAb Anti-Phospho-AKT (Ser473) (D9E) XP® #4060, Rabbit mAb anti-p38 MAPK (D13E1) XP® #8690, Mouse mAb anti-Phospho-SAPK/JNK (Thr183/Tyr185) (G9) #9255, Rabbit mAb anti-Phospho-CHK1 (Ser345) (133D3) #2348, Rabbit polyclonal anti-Phospho-CHK2 (Thr68) Antibody #2661, Rabbit polyclonal anti-BAX Antibody #2772, Rabbit polyclonal anti-Vinculin Antibody #4650, Mouse mAb anti-Cyclin D1 (DCS6) #2926, Rabbit mAb anti-Cyclin E2 (D52F9) b #3741, […], Mouse mAb anti-Cyclin B1 (V152) #4135, Rabbit mAb anti-cleaved PARP (Asp214) (D64E10) XP® #5625, Rabbit mAb anti-cleaved Caspase-3 (Asp175) (5A1E) #9654, Rabbit mAb anti-Nanog (D73G4), #4903; Rabbit mAb anti-Oct4 (C52G3) #2890; and Rabbit mAb anti-Sox2 (D6D9) #3579. Specificity of each antibody is illustrated on the company’s web page. For negative controls, pre-immune rabbit IgG was used. No signal was detected in the control IgG samples. No intensities or contrast were modified, but the appropriate bands were cut out using PhotoShop to prepare composite gel images.
To elucidate the mechanism of DT310 and DT320, cell cycle analysis and Western blotting was performed. The proteins for Western blot were selected from preliminary results using reverse phase protein array (RPPA) for DT320 and DT321 treated MDA-MB-435 and T24 cells. […] Proteins within these clusters showing the largest differences in protein expression and that were related to known anticancer drug action were confirmed by Western blot. Docetaxel was used as a positive control because it is known to induce a cell cycle arrest and apoptosis signature.
In general terms: Immunoblotting shows a protein as a band on a membrane.

Where two headings read alike, the source gives them in different places.

A word on the EC50: it is the concentration giving half of the maximal effect.

For `O=S(=O)([O-])c1cc(O)c2c(O)c(N=Nc3cccc4ccccc34)c(S(=O)(=O)[O-])cc2c1.[Na+].[Na+]` [DT320, 4,5-Dihydroxy-3-(1-naphthalenylazo)-2,7-naphthalenedisulfonic acid disodium salt], the EC50 came out at 48.2 µM in the test on MDA-MB-435 cells [1]; 104 µM in the test on AGS (gastric) (AGS on Matrigel, read-out: EC50 Matrigel); 45.1 µM in the test on AGS (gastric) (AGS on SISgel, read-out: EC50 SISgel); 71.2 ± 8.1 µM in the test on J82 (bladder) (J82 monolayer, read-out: EC50 Monolayer); 30.9 ± 4.8 µM in the test with J82 (bladder) (J82 on SISgel, read-out: EC50 SISgel); 80.1 ± 10.2 µM with Capan-1 (pancreatic) (Capan-1 monolayer, read-out: EC50 Monolayer). Besides, the EC50 in the test with Capan-1 (pancreatic) (Capan-1 on SISgel, read-out: EC50 SISgel) turned out to be 22.9 ± 4.8 µM. Besides, the Ratio with AGS (gastric) (Matrigel/SISgel EC50, AGS) stood at 2.3. In addition, the “Cyclin D1 (CCND1) expression” value in the test with MDA-MB-435 cells [2] is “induced”. For the same molecule, in the test with MDA-MB-435 cells [2] (48 h), the “cleaved caspase 3” value is recorded as “increased signal”.
